Data as given in article PMC7520419 (The AAPS Journal, 2020).
Converted amounts (≈) assume the structure as drawn. Where two headings read alike, the source gives them in different places.

Key:
[1] = parameters: Food Effect (graded symbols): key to the marks not given beside the values; conditions: cited from earlier work
[2] = Solubility measurement in aqueous buffer solutions; conditions: for solubility: pH 6.5, aqueous buffer, thermodynamic from solid
Experimental: The solubility of the drug substances was determined in biorelevant media as well as in aqueous buffers at different pH. Fasted state simulated gastric fluid (FaSSGF) ([37]), fasted state simulated intestinal fluid (FaSSIF-V2) ([38]), and fed state simulated intestinal fluid (FeSSIF-V2) ([39]) were prepared according to the instructions provided by Biorelevant (Biorelevant.com Ltd., London, UK). […] For neutral compounds, solubility was determined at pH 2, pH 4, and pH 7.
For freely soluble compounds, the extent of solubilization was measured only up to 10 mg/mL.

[3] = pKa
[4] = parameters: method as in Table I reference column; conditions: not generated within this working group; ref Table I; cited from earlier work
[5] = not generated within this working group; ref Table I; cited from earlier work
[6] = PBPK food effect modeling (Simcyp V17.1 and/or GastroPlus V9.5; Model 1 / Model 2); parameters: species or system human
[7] = system: Caco-2; conditions: cited from earlier work
[8] = Effective human jejunum permeability (Peff,man) used in the PBPK model; type: in vitro ADME
Experimental: Permeation rates of the compounds, including reference compounds, were measured in the apical-to-basolateral (AB) direction. The donor and receiver wells were sampled immediately after application of the compound to the donor well to determine baseline concentrations, and again after 1 h. Quantification was done using high-performance liquid chromatography combined with mass spectrometry (HPLC-MS/MS) analysis and monolayer integrity was verified by analyzing the receiver samples for LuY fluorescence in a plate reader.

[9] = Solubility measurement in biorelevant media (FaSSIF-V2, FeSSIF-V2); conditions: 37°C
[10] = Model 1, fasted, ref published clinical data (Table I)
[11] = Model 1, fed, ref published clinical data (Table I)
[12] = Model 1, ref published clinical data (Table I)
[13] = clinically observed PK change (AUC, Cmax) fed vs fasted, compiled by literature search
[14] = direction, AUC and/or Cmax ratio fed to fasted, BE criteria 0.8–1.25, ref drug label
[15] = not generated within this working group, ref Table I
[16] = Model 2, fasted, ref published clinical data (Table I)
[17] = Model 2, fed, ref published clinical data (Table I)
[18] = Model 2, ref published clinical data (Table I)

Compound	Observed AUC(0-inf) Fasted [1, 10]	Observed Cmax Fasted [1, 10]	Observed AUC(0-inf) Fed [1, 11]	Observed Cmax Fed [1, 11]	solubility [2]	Observed AUC Ratios (Fed/Fasted) [1, 12]	Observed Cmax Ratios (Fed/Fasted) [1, 12]	Food Effect [1, 13]	Food Effect [1, 14]	FaSSIF solubility [4]	FeSSIF solubility [4]	AUC Ratio of Ratios (Sim'd / Obs'd) ([6]; Model 1)	Cmax Ratio of Ratios (Sim'd / Obs'd) ([6]; Model 1)	Apparent permeability (Caco-2) [7, 15]	pKa ([3]; pKa (b, basic))	Observed AUC(0-inf) Fasted [1, 16]	Observed Cmax Fasted [1, 16]	Observed AUC(0-inf) Fed [1, 17]	Observed Cmax Fed [1, 17]	Observed AUC Ratios (Fed/Fasted) [1, 18]	further results
COCCc1ccc(OCC(O)CNC(C)C)cc1 (centres unmarked) [Metoprolol]	302 ng·h/mL	111 ng/mL	426 ng·h/mL	148 ng/mL	17100 µg/mL (≈ 64 mM)																
CC(C)(CO)c1cc2cc(NC(=O)C3(c4ccc5c(c4)OC(F)(F)O5)CC3)c(F)cc2n1C[C@@H](O)CO [Tezacaftor]	3970 ng·h/mL	2340 ng/mL	4360 ng·h/mL	1890 ng/mL		1.10	0.81	None (none if no significant change in AUC and Cmax with food)	None (none if no significant change in AUC and Cmax with food)	119^^ μg/ml	4783^^ μg/ml	0.92	1.23	4.2 (Caco-2)^^ × 10^−6 cm/s							pKa (ionisation state in words) [3]: Neutral; Solubility at pH 6.5 [5]: 110^^ μg/ml
CC(C)(C)c1nc(-c2cccc(NS(=O)(=O)c3c(F)cccc3F)c2F)c(-c2ccnc(N)n2)s1 [Dabrafenib]					1 µg/mL (≈ 0.00192 mM)				Negative (negative if ratio fasted > fed)	6.2^^ μg/ml	6.8^^ μg/ml				2.2	12100 ng·h/mL	2160 ng/mL	8470 ng·h/mL	1070 ng/mL	0.70	pKa ([3]; pKa (a, acidic)): 6.6; Observed Cmax Ratios (Fed/Fasted) [1, 18]: 0.49
NNC(=O)c1ccncc1 [Isoniazid]	24600 ng·h/mL	5000 ng/mL	19500 ng·h/mL	2500 ng/mL	128000 µg/mL (≈ 933 mM)	0.79	0.50	Negative (negative if ratio fasted > fed)	Negative (negative if ratio fasted > fed)			1.08	1.48	16 (Caco-2)^^ × 10^−6 cm/s	1.8	18500 ng·h/mL	5870 ng/mL	14800 ng·h/mL	2730 ng/mL	0.80	Observed Cmax Ratios (Fed/Fasted) [1, 18]: 0.47; Effective permeability ([8]; human, 1 h): 400 ×10⁻⁶ cm/s; AUC Ratio of Ratios (Sim'd / Obs'd) ([6]; Model 2): 0.91; Cmax Ratio of Ratios (Sim'd / Obs'd) ([6]; Model 2): 1.46
Cl.O=C1Cc2cc(CCN3CCN(c4nsc5ccccc45)CC3)c(Cl)cc2N1 [Ziprasidone HCl]																					FaSSIF solubility [9]: 4 µg/mL; FeSSIF solubility [9]: 13 µg/mL; Food Effect (graded symbols) ([1]; human, in vivo): ++; Observed AUC Ratios (Fed/Fasted) ([1]; human, in vivo): 2.01; Observed AUC(0-inf) Fasted ([1]; human, in vivo): 950 ng·h/mL; Observed AUC(0-inf) Fed ([1]; human, in vivo): 1910 ng·h/mL; Observed Cmax Fasted ([1]; human, in vivo): 84 ng/mL; Observed Cmax Fed ([1]; human, in vivo): 165 ng/mL; Observed Cmax Ratios (Fed/Fasted) ([1]; human, in vivo): 1.96; Effective permeability [8]: 230 ×10⁻⁶ cm/s; AUC Ratio of Ratios (Sim'd / Obs'd) ([6]; Model 2): 1.05; Cmax Ratio of Ratios (Sim'd / Obs'd) ([6]; Model 2): 0.88; Solubility at pH 6.5 ([2]; room temperature): 1 μg/ml; Apparent permeability (Caco-2) ([7]; Caco-2): 12.3 (Caco-2)^^ × 10^−6 cm/s
